Values quoted from earlier work as cited in patent US6462233B1, “Process for the preparation of sorbic acid” (Daicel Chemical Industries, Ltd., priority 1998, dated 2002).

Settings: hot water around 100° C.

C/C=C/C=C/C(=O)O [sorbic acid]
solubility of sorbic acid: at most 3%
